Target: Cytosol aminopeptidase (Homo sapiens, UniProt P28838)
Assay: Inhibitory activity against leucine aminopeptidase

Sequence of Cytosol aminopeptidase (P28838 whole entry): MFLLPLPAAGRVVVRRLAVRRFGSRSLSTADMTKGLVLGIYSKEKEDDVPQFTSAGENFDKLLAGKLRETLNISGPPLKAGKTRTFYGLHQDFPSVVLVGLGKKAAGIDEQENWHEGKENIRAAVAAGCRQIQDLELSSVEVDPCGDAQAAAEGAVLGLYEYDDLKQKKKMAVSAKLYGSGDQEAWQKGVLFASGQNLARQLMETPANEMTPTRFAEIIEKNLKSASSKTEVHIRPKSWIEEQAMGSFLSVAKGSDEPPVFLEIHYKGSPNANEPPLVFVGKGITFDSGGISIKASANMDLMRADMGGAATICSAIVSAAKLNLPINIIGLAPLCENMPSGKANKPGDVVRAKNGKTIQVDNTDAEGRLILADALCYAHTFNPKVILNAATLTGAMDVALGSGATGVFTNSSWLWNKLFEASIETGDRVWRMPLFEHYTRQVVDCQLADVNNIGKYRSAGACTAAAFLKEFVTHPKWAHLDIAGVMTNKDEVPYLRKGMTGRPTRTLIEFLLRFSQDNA

Structure (SMILES): COC(=O)/C=C\C(=O)[C@@H](N)CC(C)C
- Ki: 76 nM
